Assay results published in patent publication US7598258B2, “Quinoline derivatives and quinazoline derivatives inhibiting autophosphorylation of macrophage colony stimulating factor receptor” (Kirin Beer Kabushiki Kaisha, priority 2002, dated 2009).

target: T1, mouse c-fms (Mus musculus, UniProt P09581); experiment: Inhibition of c-fms autophosphorylation in macrophage-like cell line BAC-1.2F5 by M-CSF stimulation (ELISA); type: cell-based; settings: BAC-1.2F5 cells, human recombinant M-CSF 50 ng/ml, read-out: c-fms autophosphorylation 50% inhibitory concentration (IC50)
T1 construct: Macrophage-like cell line BAC-1.2F5 which expresses c-fms as a M-CSF receptor on cell membranes; endogenous in cells; host or cells: BAC-1.2F5 mouse macrophage-like cell line
T1 sequence (P09581 20-977): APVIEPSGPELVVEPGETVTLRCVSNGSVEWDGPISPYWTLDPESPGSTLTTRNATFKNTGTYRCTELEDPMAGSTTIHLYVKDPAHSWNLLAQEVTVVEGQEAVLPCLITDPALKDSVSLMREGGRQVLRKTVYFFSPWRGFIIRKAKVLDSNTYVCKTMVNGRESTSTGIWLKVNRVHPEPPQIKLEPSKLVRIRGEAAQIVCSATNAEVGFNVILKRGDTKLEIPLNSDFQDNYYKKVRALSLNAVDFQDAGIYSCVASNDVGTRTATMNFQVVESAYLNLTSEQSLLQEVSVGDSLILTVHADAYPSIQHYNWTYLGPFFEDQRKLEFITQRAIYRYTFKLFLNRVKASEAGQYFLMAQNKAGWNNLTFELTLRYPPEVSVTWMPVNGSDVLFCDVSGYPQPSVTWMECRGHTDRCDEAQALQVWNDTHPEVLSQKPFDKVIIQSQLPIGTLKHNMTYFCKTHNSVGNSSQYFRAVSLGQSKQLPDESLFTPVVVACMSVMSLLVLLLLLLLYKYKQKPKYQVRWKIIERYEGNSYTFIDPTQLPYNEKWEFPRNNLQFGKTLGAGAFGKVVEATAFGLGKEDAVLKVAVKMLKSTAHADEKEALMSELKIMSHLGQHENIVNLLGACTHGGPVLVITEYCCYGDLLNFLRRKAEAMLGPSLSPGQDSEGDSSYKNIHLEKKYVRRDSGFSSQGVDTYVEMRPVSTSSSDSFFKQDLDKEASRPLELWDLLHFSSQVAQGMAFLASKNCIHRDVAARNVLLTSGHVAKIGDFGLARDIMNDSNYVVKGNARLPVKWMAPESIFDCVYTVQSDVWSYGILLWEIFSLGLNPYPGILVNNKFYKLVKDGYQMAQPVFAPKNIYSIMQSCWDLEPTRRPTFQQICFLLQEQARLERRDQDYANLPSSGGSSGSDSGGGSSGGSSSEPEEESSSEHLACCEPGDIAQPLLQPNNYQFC
Experimental: Macrophage-like cell line BAC-1.2F5 which expresses c-fms as a M-CSF receptor on cell membranes (CLAUDIA M. et al., J. Cell. Physiol., 130, 420-427 (1987), “Isolation and Characterization of a Cloned Growth Factor Dependent Macrophage Cell Line, BAC1.2F5”) was cultured at 37° C. in a DMEM medium containing L-cell supernatant and 10% fetal calf serum (GIBCO BRL) in a 5% CO2 incubator until about 50 to 70% confluent. The harvested cells were inoculated into wells, each containing the same medium, in a collagen type I coat 96-well flat-bottom plate in an amount of 5.0×10^4 per well, and cultured at 37° C. for 12 hr. Thereafter, the medium was replaced with a DMEM medium containing a 0.1% fetal calf serum and cultured for 12 hr. Thereafter, a test compound dissolved in dimethyl sulfoxide was added to each well, and cells were incubated at 37° C. for one hr. Human recombinant M-CSF was added to a final concentration of 50 ng/ml, and cells were stimulated at 37° C. for 6 min. After the medium was removed, 50 μl of a solubilization buffer (20 mM HEPES (pH 7.4), 150 mM NaCl, 0.2% Triton X-100, 10% glycerol, 5 mM sodium orthovanadylate, 5 mM disodium ethylenediaminetetraacetate, and 2 mM Na4P2O7) was added thereto. The mixture was shaken at 4° C. for 2 hr to prepare a cell extract as an assay sample which was then used for an ELISA assay.
The plate for the ELISA assay was prepared as follows. Phosphate buffered saline (50 μl, pH 7.4) containing 5 μg/ml of anti-phospho-tyrosine antibody (PY20; Transduction Laboratories) was added to a microplate for ELISA (Maxisorp; purchased from NUNC), followed by standing at 4° C. overnight to be immobilized on the wells. Thereafter, each well was washed twice with 200 μl of a Ca- and Mg-free phosphate buffer containing 0.1% Tween-20 (hereinafter referred to as “PBS-T”), and 200 μl of a blocking solution (Dainippon Pharmaceutical Co. Ltd.: BlockAce) was added to each well, and the wells were then allowed to stand at room temperature for 2 hr for blocking.
Separately, phosphate buffered saline (50 μl, pH 7.4) containing 5 μg/ml of anti-phospho-tyrosine antibody (PY20; Transduction Laboratories) was added to a microplate for ELISA (Maxisorp; purchased from NUNC), followed by standing at 4° C. overnight to form a solid phase on the wells. After washing of the plate, 300 μl of a blocking solution was added, followed by standing at room temperature for 2 hr to perform blocking. After washing, the whole quantity of the cell extract was transferred to the wells, and the plate was then allowed to stand at 4° C. overnight. After washing, anti-c-fms antiserum (Upstate Biotechnology, Inc.) was allowed to react at room temperature for one hr, and, after washing, a peroxidase-labeled anti-rabbit Ig antibody (Amersham) was allowed to react at room temperature for one hr. After washing, a chromophoric substrate for peroxidase (Sumitomo Bakelite Co., Ltd.) was added thereto to initiate a reaction. After a suitable level of color development, a reaction termination solution was added to stop the reaction, and the absorbance at 450 nm was measured with a microplate reader. The c-fms phosphorylation activity for each well was determined by presuming the absorbance without the addition of the test compound and with the addition of M-CSF to be 100% c-fms phosphorylation activity and the absorbance without the addition of the test compound and M-CSF to be 0% c-fms phosphorylation activity. The concentration of the test compound was varied on several levels, the c-fms phosphorylation inhibitory rate was determined for each case, and the concentration of the test compound necessary for inhibiting 50% of c-fms phosphorylation (IC50) was calculated.

Structure (SMILES)	IC50
COc1cc2nccc(Oc3ccc(NC(=O)NC(C)c4nc(C)c(C)s4)c(F)c3)c2cc1OC (centres unmarked) [Example 95, N-{4-[(6,7-Dimethoxy-4-quinolyl)oxy]-2-fluorophenyl}-N′-[1-(4,5-dimethyl-1,3-thiazol-2-yl)ethyl]urea]	38.3 nM
COc1cc(Oc2ccnc3cc(OC)c(OC)cc23)ccc1NC(=O)N[C@@H](C)c1nccs1 [Example 75, N-{4-[(6,7-Dimethoxy-4-quinolyl)oxy]-2-methoxyphenyl}-N′-[(1S)-1-(1,3-thiazol-2-yl)ethyl]urea]	2.1 nM
COc1cc2nccc(Oc3cc(C)c(NC(=O)NC(C)c4nc(C)c(C)s4)cc3C)c2cc1OC (centres unmarked) [Example 98, N-{4-[(6,7-Dimethoxy-4-quinolyl)oxy]-2,5-dimethylphenyl}-N′-[1-(4,5-dimethyl-1,3-thiazol-2-yl)ethyl]urea]	426 nM
COc1cc2nccc(Oc3ccc(NC(=O)N[C@H]4CCc5ccccc54)cc3)c2cc1OC [Example 43, N-[(1S)-2,3-Dihydro-1H-1-indenyl]-N′-{4-[(6,7-dimethoxy-4-quinolyl)oxy]phenyl}urea]	3.1 nM
COc1cc2nccc(Oc3ccc(NC(=O)NC(C)c4nc(C)c(C)s4)cc3)c2cc1OC (centres unmarked) [Example 94, N-{4-[(6,7-Dimethoxy-4-quinolyl)oxy]phenyl}-N′-[1-(4,5-dimethyl-1,3-thiazol-2-yl)ethyl]urea]	53.5 nM
CC[C@@H](NC(=O)Nc1ccc(Oc2ccnc3cc(OC)c(OC)cc23)cc1)c1ccccc1 [Example 38, N-{4-[(6,7-Dimethoxy-4-quinolyl)oxy]phenyl}-N′-[(1R)-1-phenylpropyl]urea]	5.7 nM
CC[C@H](NC(=O)Nc1ccc(Oc2ccnc3cc(OC)c(OC)cc23)cc1)c1ccccc1 [Example 37, N-{4-[(6,7-Dimethoxy-4-quinolyl)oxy]phenyl}-N′-[(1S)-1-phenylpropyl]urea]	5 nM
COc1cc2nccc(Oc3ccc(NC(=O)N[C@@H]4CCc5ccccc54)cc3)c2cc1OC [Example 44, N-[(1R)-2,3-Dihydro-1H-1-indenyl]-N′-{4-[(6,7-dimethoxy-4-quinolyl)oxy]phenyl}urea]	1.8 nM

The remaining compounds from weak to strong by IC50, led by results:

IC50	Structure (SMILES)
147 nM	COc1cc2nccc(Oc3ccc(NC(=O)NC(C)c4nc(C)c(C)s4)c(C)c3)c2cc1OC (centres unmarked) [Example 96, N-{4-[(6,7-Dimethoxy-4-quinolyl)oxy]-2-methylphenyl}-N′-[1-(4,5-dimethyl-1,3-thiazol-2-yl)ethyl]urea]
120 nM	COc1cc2nccc(Oc3ccc(NC(=O)NC(C)c4nc(C)c(C)s4)c(C(F)(F)F)c3)c2cc1OC (centres unmarked) [Example 97, N-[4-[(6,7-Dimethoxy-4-quinolyl)oxy]-2-(trifluoromethyl)phenyl]-N′-[1-(4,5-dimethyl-1,3-thiazol-2-yl)ethyl]urea]
7.1 nM	COc1cc(Oc2ccnc3cc(OC)c(OC)cc23)ccc1NC(=O)N[C@H](C)c1nccs1 [Example 76, N-{4-[(6,7-Dimethoxy-4-quinolyl)oxy]-2-methoxyphenyl}-N′-[(1R)-1-(1,3-thiazol-2-yl)ethyl]urea]
